Measurements reported in patent publication US20210161997A1, “TREATING DISEASES VIA TARGETED MODULATION OF GENE SIGNALING NETWORKS” (Camp4 Therapeutics Corporation, priority 2018, published 2021).

Experiments:
UGT1A1 = experiment: RNA-seq of UGT1A1 expression in compound-treated primary human hepatocytes; assay type: cell-based
In short: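 Cryopreserved primary human hepatocytes from three donors were plated in 24-well format, then treated with compound diluted from 1000× stocks in serum-free maintenance medium for about 16–18 h. Poly(A) RNA-seq log2 fold change was computed against vehicle/pan-experiment controls. Significance required FPKM ≥1, log2FC ≥0.5 and q ≤0.05.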

CPOX = experiment: RNA-seq of CPOX expression in compound-treated primary human hepatocytes; assay type: cell-based; details: RNA-seq, primary human hepatocytes; significance FPKM ≥0.5, log 2(fold change) ≥0.3, q-value ≤0.05
Method: Human hepatocytes were obtained from two donors from Massachusetts General Hospital, namely MGH54 and MGH63, and one donor from Lonza, namely HUM4111B. Cryopreserved hepatocytes were cultured in plating media for 16 hours, transferred to maintenance media for 4 hours. Cultured on serum-free media for 2 hours, then a compound was added. The hepatocytes were maintained on the serum-free media for 16 hours prior to gene expression analysis. Primary human hepatocytes were stored in the vapor phase of a liquid nitrogen freezer (about −130° C.).
Human hepatocytes cultured as described above were plated in 24-well format, adding 375,000 cells per well in a volume of 500 ul plating medium. Four hours before treatment, cells were washed with PBS and the medium was changed to either: fresh maintenance medium (complete) or modified maintenance medium.
Compound stocks were prepared at 1000× final concentration and added in a 2-step dilution to the medium to reduce risk of a compound precipitating out of solution when added to the cells, and to ensure reasonable pipetting volumes. One at a time, each compound was first diluted 10-fold in warm (about 37° C.) modified maintenance medium (initial dilution=ID), mixed by vortexing, and the ID was diluted 100-fold into the cell culture (e.g. 5.1 ul into 1 well of a 24-well plate containing 0.5 mL medium). The plate was mixed by carefully swirling and after all wells were treated and returned to the incubator overnight. If desired, separate plates/wells were treated with vehicle-only controls and/or positive controls. If using multi-well plates, controls were included on each plate. After about 18 hours, cells were harvested for further analysis, e.g., ChIP-seq, RNA-seq, ATAC-seq, etc.
This protocol is a modified version of the following protocols: MagMAX mirVana Total RNA Isolation Kit User Guide (Applied Biosystems #MAN0011131 Rev B.0), NEBNext Poly(A) mRNA Magnetic Isolation Module (E7490), and NEBNext Ultra Directional RNA Library Prep Kit for Illumina (E7420) (New England Biosystems #E74901).
The MagMAX mirVana kit instructions (the section titled “Isolate RNA from cells” on pages 14-17) were used for isolation of total RNA from cells in culture. Two hundred μl of Lysis Binding Mix was used per well of the multiwell plate containing adherent cells (usually a 24-well plate).
For mRNA isolation and library prep, the NEBNext Poly(A) mRNA Magnetic Isolation Module and Directional Prep kit was used. RNA isolated from cells above was quantified, and prepared in […] of each sample in 50 μl of nuclease-free water. This protocol may be run in microfuge tubes or in a 96-well plate.
Standard QC were applied (read integrity, mapping statistics, library complexity, fragment bias) to remove unsatisfactory samples. […] Log 2 fold change and significance values were computed using PME count data (with replicates explicitly modeled versus pan-experiment controls), median ratio normalized, using maximum likelihood estimation rather than maximum a posteriori, and disabling the use of Cook's distance cutoff when determining acceptable adjusted p-values. […] RNA-seq signals were also normalized by read depth and visualized using the UCSC browser.
To identify small molecules that modulate target gene expression, primary human hepatocytes were prepared as a monoculture, and at least one small molecule compound was applied to the cells.
RNA-seq was performed to determine the effects of the compounds on the expression of the target genes in hepatocytes. Fold change was calculated by dividing the level of expression in the cell system that had been perturbed by the level of expression in an unperturbed system. Changes in expression having a p-value ≤0.05 were considered significant.
Significance was defined as an FPKM ≥0.5 a log 2(fold change) ≥0.3, and a q-value of ≤0.05.

S=C(NCc1ccc2c(c1)OCO2)N1CCN(c2ncnc3c2oc2ccccc23)CC1 [Amuvatinib]
UGT1A1 Fold Change (Log2) (UGT1A1): 0.61 Log2

O=C1CCC(N2C(=O)c3ccccc3C2=O)C(=O)N1 (centres unmarked) [Thalidomide]
CPOX Fold change (Log2) (CPOX): 0.3 Log2
